Reference: patent US20050032807A1, “Methods of treating inflammatory diseases with ammonium salts of ornitihine derivatives” (priority 2003, published 2005)

How the values were obtained:
[1] = lyophilization of the dilute ammonium hydroxide solution to the ammonium salt
[2] = biological target: T1, dihydrofolate reductase (DHFR) (Mus musculus, UniProt P00375); details: Rosowsky et al., J. Med. Chem. 29, 655-660 (1986); cited from earlier work
T1 sequence (P00375 1-187): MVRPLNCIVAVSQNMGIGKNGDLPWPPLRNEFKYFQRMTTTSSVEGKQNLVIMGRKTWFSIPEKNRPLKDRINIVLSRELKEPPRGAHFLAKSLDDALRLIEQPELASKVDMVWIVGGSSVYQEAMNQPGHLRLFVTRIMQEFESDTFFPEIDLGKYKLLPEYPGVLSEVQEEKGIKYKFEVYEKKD

[3] = test system: folylpolyglutamate synthetase (FPGS); details: Rosowsky et al., J. Med. Chem. 29, 655-660 (1986); cited from earlier work
[4] = test system: cell growth in culture; details: Rosowsky et al., J. Med. Chem. 29, 655-660 (1986); cited from earlier work

product decomposition [1]	SMILES	inhibition of dihydrofolate reductase (DHFR) [2]	inhibition of folylpolyglutamate synthetase (FPGS) [3]	inhibition of cell growth in culture [4]
minimal	N.N.Nc1nc(N)c2nc(CNc3ccc(C(=O)N[C@@H](CCCNC(=O)c4ccccc4C(=O)O)C(=O)O)cc3)cnc2n1 [compound 8, N^α-(4-Amino-4-deoxypteroyl)N^δ-hemiphthaloyl-L-ornithine ammonium salt]	–	–	–
–	NCCC[C@H](NC(=O)c1ccc(NCc2cnc3nc(N)nc(N)c3n2)cc1)C(=O)O [APA-L-Orn, N^α-(4-amino-4-deoxypteroyl)-L-ornithine]	potent inhibitor	potent inhibitor	relatively inactive
